This passage reports Efficacy %, log p and chromatographic logP results from patent US20130012546A1 (priority 2009, published 2013).

The test system of one data set is Phytophthora infestans. It is filed as in vivo. To be noted: tomato plants, preventive spray, 100 ppm of active ingredient, evaluated 7 days after inoculation.
The next data set deals with Plasmopara viticola. Kind of data set: Plasmopara test (grapevines) / preventive. The format is in vivo. Conditions: preventive spray, 10 ppm of active ingredient, evaluated 6 days after inoculation. On the procedure:
Plasmopara Test (Grapevines)/Preventive
Solvent: 24.5 parts by weight of acetone • 24.5 parts by weight of dimethylacetamide Emulsifier: 1 part by weight of alkylaryl polyglycol ether
To produce a suitable preparation of active compound, 1 part by weight of active compound is mixed with the stated amounts of solvent and emulsifier, and the concentrate is diluted with water to the desired concentration.
To test for preventive activity, young plants are sprayed with the preparation of active compound at the stated rate of application. After the spray coating has dried on, the plants are inoculated with an aqueous spore suspension of Plasmopara viticola and then remain for 1 day in an incubation cabinet at approximately 20° C. and a relative atmospheric humidity of 100%. The plant is subsequently placed for 4 days in a greenhouse at approximately 21° C. and a relative atmospheric humidity of approximately 90%. The plants are then misted and placed for 1 day in an incubation cabinet.
The test is evaluated 6 days after the inoculation. 0% means an efficacy which corresponds to that of the untreated control, while an efficacy of 100% means that no disease is observed.

The next data set in a line: logP(HCOOH) by HPLC. The format is physicochemical. Conditions: for log p: HPLC on reversed phase columns, pH 2.7, 0.1% formic acid in water / acetonitrile, linear gradient 10% to 95% acetonitrile, EEC directive 79/831 Annex V.A8.
The next data set concerns Pythium ultimum. Kind of data set: Pythium test (cotton) / seed treatment. It is filed as in vivo. Conditions: 10 g/dt seed of active ingredient, emerged seedlings counted after 7 days in greenhouse. On the procedure: Pythium Test (Cotton)/Seed Treatment
The test is performed under greenhouse conditions.
Cotton seeds, treated with the active compound or compound combinations, solved in N-methyl-2-pyrrolidon and diluted with water to the desired dosages, were sown in 6*6 cm pots containing 4 cm of a 1:1 mix of steamed field soil and sand.
Perlite was incubated with mycelium fragments of Pythium ultimum. 1 ml of infected perlite was scattered between the treated cotton seeds. Seeds were then covered by light expanded clay aggregate. Pots were incubated in the greenhouse 7 days at 20° C. and 80% relative humidity.
Assessment consisted of counting of emerged seedlings. 0% means an efficacy which corresponds to that of the control, while an efficacy of 100% means that all seedlings have emerged.

With `C=CCCCOCC(=O)Nc1nc(CON=C(c2ccccc2)c2nnnn2C)cs1` [Example 6], the Efficacy % in the data set on Phytophthora infestans worked out at 95%; with Plasmopara viticola, 90%. Also, in the data set “logP(HCOOH) by HPLC”, the log p was 3.52.
Consider `CON=C(C(=O)Nc1nc(CON=C(c2ccccc2)c2nnnn2C)cs1)c1ccccc1Cl` [Example 10], for which the Efficacy % was 95% in the data set with Phytophthora infestans, 90% in the data set on Plasmopara viticola and 88% in the data set on Pythium ultimum. In the data set “logP(HCOOH) by HPLC”, this compound returned a log p of 3.87.
On the same counts, the results for `Cn1nnnc1C(=NOCc1csc(NC(=O)COC2CCCCC2)n1)c1ccccc1` [Example 12] are 92%, 94%, 100% and 3.85.
For `Cc1nnnn1C(=NOCc1cccc(NC(=O)OC(C)CC2CC2)n1)c1ccccc1` (centres unmarked) [Example 14], the Efficacy % is 95% in the data set on Phytophthora infestans and 94% in the data set with Plasmopara viticola. Besides, the log p in the data set “logP(HCOOH) by HPLC” amounted to 4.24.
For `Cc1nnnn1C(=NOCc1cccc(NC(=O)OCC2CCCCC2)n1)c1ccccc1` [Example 16], in that order: 95%, 85% and 4.8.
For `Cc1nnnn1C(=NOCc1cccc(NC(=O)OCCCC2CC2)n1)c1ccccc1` [Example 18], the figures for the Efficacy % with Phytophthora infestans and in the data set with Plasmopara viticola were 100% and 72%, respectively. The log p in the data set “logP(HCOOH) by HPLC” is listed as 4.29.
For `Cc1nnnn1C(=NOCc1cccc(NC(=O)OCC2CCCC2)n1)c1ccccc1` [Example 20], in that order: 95%, 97% and 4.41.
As to `CC(=NOCC(=O)Nc1nc(CON=C(c2ccccc2)n2nnnc2C)cs1)c1ccccc1` [Example 39], the Efficacy % in the data set with Phytophthora infestans was 98%; with Pythium ultimum, 85%. In addition, the log p in “logP(HCOOH) by HPLC” is 3.79.
Consider `C=CCOC(C)C(=O)Nc1cccc(CO/N=C(/c2ccccc2)c2nnnn2C)n1` (centres unmarked) [Example 42], for which the Efficacy % with Phytophthora infestans worked out at 98%; in the data set on Plasmopara viticola it was 70%. The same compound came in with a log p in the data set “logP(HCOOH) by HPLC” of 3.35.
With `C=CCOC(C)C(=O)Nc1nc(CO/N=C(/c2ccccc2)n2nnnc2C)cs1` (centres unmarked) [Example 45], the Efficacy % was found to be 95% with Phytophthora infestans and 84% in the data set on Plasmopara viticola. For the same compound, the log p in the data set “logP(HCOOH) by HPLC” came out at 3.19.
On to `C=CCCOC(C)C(=O)Nc1nc(CO/N=C(/c2ccccc2)c2nnnn2C)cs1` (centres unmarked) [Example 46], for which the Efficacy % is given as 98% in the data set on Phytophthora infestans and 79% in the data set on Plasmopara viticola. This compound showed a log p in “logP(HCOOH) by HPLC” of 3.48.
With `C=CCCOCC(=O)Nc1nc(CO/N=C(/c2ccccc2)c2nnnn2C)cs1` [Example 47], the Efficacy % in the data set on Phytophthora infestans amounted to 95%; in the data set with Plasmopara viticola, 82%. The compound also registered a log p in “logP(HCOOH) by HPLC” of 3.19.
For `C=CCOC(C)C(=O)Nc1nc(CO/N=C(/c2ccccc2)c2nnnn2C)cs1` (centres unmarked) [Example 48], in that order: 100%, 74% and 3.13.
`C#CCOC(C)C(=O)Nc1nc(CO/N=C(/c2ccccc2)c2nnnn2C)cs1` (centres unmarked) [Example 51]: the values for the Efficacy % in the data set with Phytophthora infestans, in the data set on Plasmopara viticola and in the data set with Pythium ultimum were 95%, 96% and 100%, respectively. The log p in “logP(HCOOH) by HPLC” is on record as 2.82.
Regarding `C#CCOC(C)C(=O)Nc1nc(CO/N=C(/c2ccccc2)n2nnnc2C)cs1` (centres unmarked) [Example 53], the values for the Efficacy % in the data set on Phytophthora infestans, in the data set on Plasmopara viticola and with Pythium ultimum were 95%, 95% and 100%, respectively. Besides, the log p in the data set “logP(HCOOH) by HPLC” is 2.92.
Take `Cn1nnnc1C(=NOCc1csc(NC(=O)OCCC2CCCCC2)n1)c1ccccc1` [Example 62]: the Efficacy % came to 100% in the data set with Phytophthora infestans and 88% in the data set with Plasmopara viticola. Further, the log p in the data set “logP(HCOOH) by HPLC” is listed as 4.66.
On the same counts, the results for `Cn1nnnc1C(=NOCc1csc(NC(=O)OCC2CC2)n1)c1ccccc1` [Example 63] are 100%, 93% and 3.23.
Regarding `CC(CC1CC1)OC(=O)Nc1nc(CON=C(c2ccccc2)c2nnnn2C)cs1` (centres unmarked) [Example 64], the Efficacy % is 95% with Phytophthora infestans and 94% with Plasmopara viticola. The compound also came in with a log p in the data set “logP(HCOOH) by HPLC” of 3.83.
In the case of `Cc1nnnn1C(=NOCc1csc(NC(=O)COC2CCCCC2)n1)c1ccccc1` [Example 78], the Efficacy % was determined as 100% in the data set on Phytophthora infestans and 79% with Plasmopara viticola. This compound also yielded a log p in the data set “logP(HCOOH) by HPLC” of 3.89.
On the same counts, the results for `Cn1nnnc1C(=NOCc1csc(NC(=O)COC2CCCC2)n1)c1ccccc1` [Example 84] are 98%, 90% and 3.53.
For `Cc1nnnn1C(=NOCc1csc(NC(=O)COC2CCCC2)n1)c1ccccc1` [Example 86], in that order: 95%, 81% and 3.6.
Turning to `Cc1nnnn1C(=NOCc1cccc(NC(=O)COC2CCCCCC2)n1)c1ccccc1` [Example 88], the Efficacy % with Phytophthora infestans stood at 95%. The compound further displayed a log p in “logP(HCOOH) by HPLC” of 4.67.
On to `Cc1nnnn1C(=NOCc1csc(NC(=O)COC2CCCCCC2)n1)c1ccccc1` [Example 89], for which the results for the Efficacy % in the data set with Phytophthora infestans and in the data set on Plasmopara viticola were 100% and 73%, respectively. This compound also had a log p in “logP(HCOOH) by HPLC” of 4.3.
In the data set on Phytophthora infestans, `Cn1nnnc1C(=NOCc1cccc(NC(=O)COC2CCCCCC2)n1)c1ccccc1` [Example 90] had an Efficacy % of 100%. Moreover, the log p in the data set “logP(HCOOH) by HPLC” is 4.56.
With `Cn1nnnc1C(=NOCc1csc(NC(=O)COC2CCCCCC2)n1)c1ccccc1` [Example 91], the Efficacy % with Phytophthora infestans stood at 100%; in the data set on Plasmopara viticola, 94%; in the data set with Pythium ultimum, 96%. In the data set “logP(HCOOH) by HPLC”, this compound showed a log p of 4.23.
In the case of `CC(OC1CCCCC1)C(=O)Nc1nc(CON=C(c2ccccc2)c2nnnn2C)cs1` (centres unmarked) [Example 92], the values for the Efficacy % in the data set on Phytophthora infestans and in the data set with Plasmopara viticola were 100% and 93%, respectively. This compound returned a log p in “logP(HCOOH) by HPLC” of 4.14.
Regarding `Cc1nnnn1C(=NOCc1csc(NC(=O)C(C)OC2CCCC2)n1)c1ccccc1` (centres unmarked) [Example 93], the Efficacy % in the data set on Phytophthora infestans amounted to 100%; with Plasmopara viticola, 91%. Besides, the log p in the data set “logP(HCOOH) by HPLC” worked out at 3.87.
In turn, `Cc1nnnn1C(=NOCc1csc(NC(=O)C(C)OC2CCCCC2)n1)c1ccccc1` (centres unmarked) [Example 94] had an Efficacy % in the data set on Phytophthora infestans of 93%. For the same compound, in “logP(HCOOH) by HPLC”, the log p is on record as 4.21.
On the same counts, the results for `CC(OC1CCCCCC1)C(=O)Nc1nc(CON=C(c2ccccc2)c2nnnn2C)cs1` (centres unmarked) [Example 95] are 95% and 4.51.
On to `Cc1nnnn1C(=NOCc1csc(NC(=O)C(C)OC2CCCCCC2)n1)c1ccccc1` (centres unmarked) [Example 96], for which, in the data set with Phytophthora infestans, the Efficacy % is reported as 98%. Also, the log p in “logP(HCOOH) by HPLC” is on record as 4.58.
As for `CC(OC1CCCC1)C(=O)Nc1nc(CO/N=C(/c2ccccc2)c2nnnn2C)cs1` (centres unmarked) [Example 97, 2-(cyclopentyloxy)-N-{4-[({[(Z)-(1-methyl-1H-tetrazol-5-yl)(phenyl)methylene]amino}oxy)methyl]-1,3-thiazol-2-yl}propanamide], the Efficacy % with Phytophthora infestans is on record as 95%. Besides, the chromatographic logP in “logP(HCOOH) by HPLC” (reversed phase HPLC column, pH 2.7, HCOOH, read-out: logP(HCOOH)) amounted to 3.8.
As to `CC(OC1CCCC1)C(=O)Nc1cccc(CON=C(c2ccccc2)c2nnnn2C)n1` (centres unmarked) [Example 98], the Efficacy % in the data set on Phytophthora infestans is on record as 98%. Also, the log p in “logP(HCOOH) by HPLC” is listed as 4.11.
On the same counts, the results for `CC(OC1CCCCC1)C(=O)Nc1cccc(CON=C(c2ccccc2)c2nnnn2C)n1` (centres unmarked) [Example 99] are 90% and 4.49.
Consider `C=C=CCCC(=O)Nc1cccc(CON=C(c2ccccc2)c2nnnn2C)n1` [Example 101], for which the Efficacy % with Phytophthora infestans amounted to 93%; in the data set on Plasmopara viticola, 81%; in the data set on Pythium ultimum, 100%. For the same compound, the log p in “logP(HCOOH) by HPLC” was 3.21.
Turning to `C=C=CCCC(=O)Nc1nc(CON=C(c2ccccc2)c2nnnn2C)cs1` [Example 102], the Efficacy % in the data set with Phytophthora infestans came out at 80%; with Plasmopara viticola it was 83%. This compound also showed a log p in “logP(HCOOH) by HPLC” of 3.11.
In the data set with Phytophthora infestans, `CC1CCC(C(C)C)C(OCC(=O)Nc2nc(CON=C(c3ccccc3)c3nnnn3C)cs2)C1` (centres unmarked) [Example 107] came in with an Efficacy % of 95%. Moreover, the log p in the data set “logP(HCOOH) by HPLC” was 5.39.
On the same counts, the results for `CC1CCC(C(C)C)C(OCC(=O)Nc2nc(CON=C(c3cccc(F)c3)c3nnnn3C)cs2)C1` (centres unmarked) [Example 109] are 84% and 5.47.
